Assay results taken from patent US20260159481A1, “INDOLE DERIVATIVE WITH SUBSTITUENT AND PHARMACEUTICAL USE” (MITOIMMUNE THERAPEUTICS INC., priority 2023, published 2026).

What follows are molecules tested on cardiac cells (H9C2) (assay: Protective effect against t-BHP-induced cell death in cardiac cells (LDH release)). Details: Rattus norvegicus, t-BHP 400 PM, 2 hours, read-out: EC50, protective effect against cell death due to t-BHP induction.
Assay type: cell-based
Experimental: To confirm a protective effect on cardiac cells, H9C2 cells were seeded at 1.5×10^4 cells/well in a 96-well plate and cultured for 24 hours. The example compounds were diluted to have the final concentration of 0.001, 0.01, 0.03, 0.1, 0.3, 1, 3, 10, and 30 PM, respectively, and then added to different wells, and the resulting cells were cultured for 15 to 20 minutes. Tert-butyl hydroperoxide (t-BHP) was treated to have the final concentration of 400 PM, and the resulting cells were cultured for 2 hours. To confirm the cell death protection effect of each compound, the degree of extracellular secretion of lactate dehydrogenase (LDH) was measured using a cytotoxicity LDH assay kit [Dojindo; CK12]. Briefly, after 2 hours of t-BHP treatment on the cells, 70 μL of the supernatant was taken from the 96-well plate where the cells were cultured and transferred to a new 96-well plate. The assay buffer included in the kit was added at 70 μL/well (equal to that of the sample) and the plate was covered with foil to block light and allowed to react for 15 minutes at room temperature. While observing a color change of each sample, 35 μL/well of a stop solution was added, an absorbance at 490 nm was measured using an iD3 spectrophotometer, and an EC50 value was calculated.

| Compound | EC50 [nM] |
| --- | --- |
| CCN(CC)C(=O)c1cc(NCc2ccncc2)c2[nH]c(-c3ccccc3)cc2c1 [Example 4, N,N-diethyl-2-phenyl-7-((pyridin-4-ylmethyl)amino)-1H-indole-5-carboxamide] | ≤ 300 |
| COCCOCCNC(=O)c1cc(NC2CCOCC2)c2[nH]c(-c3ccccc3)cc2c1 [Example 56, N-(2-(2-methoxyethoxy)ethyl)-2-phenyl-7-((tetrahydro-2H-pyran-4-yl)amino)-1H-indole-5-carboxamide] | 300 to 1000 |
| COCCN(C)C(=O)c1cc(NC2CCOCC2)c2[nH]c(-c3ccccc3)cc2c1 [Example 51, N-(2-methoxyethyl)-N-methyl-2-phenyl-7-((tetrahydro-2H-pyran-4-yl)amino)-1H-indole-5-carboxamide] | ≤ 300 |
| OCCOCCCc1cc(NC2CCOCC2)c2[nH]c(-c3ccccc3)cc2c1 [Example 28, 2-(3-(2-phenyl-7-((tetrahydro-2H-pyran-4-yl)amino)-1H-indol-5-yl)propoxy)ethan-1-ol] | ≤ 300 |
| COCCNCc1cc(NC2CCOCC2)c2[nH]c(-c3ccccc3)cc2c1 [Example 50, 5-(((2-methoxyethyl)amino)methyl)-2-phenyl-N-(tetrahydro-2H-pyran-4-yl)-1H-indol-7-amine] | ≤ 300 |
| OCCCOCCOCc1cc(NC2CCOCC2)c2[nH]c(-c3ccccc3)cc2c1 [Example 34, 3-(2-((2-phenyl-7-((tetrahydro-2H-pyran-4-yl)amino)-1H-indol-5-yl)methoxy)ethoxy)propan-1-ol] | ≤ 300 |
| COCCOCCN(C)Cc1cc(NC2CCOCC2)c2[nH]c(-c3ccccc3)cc2c1 [Example 58, 5-(((2-(2-methoxyethoxy)ethyl)(methyl)amino)methyl)-2-phenyl-N-(tetrahydro-2H-pyran-4-yl)-1H-indol-7-amine] | ≤ 300 |
| CCN(CC)C(=O)c1cc(NC2CCOCC2)c2[nH]c(-c3ccccc3)cc2c1 [Example 2, N,N-diethyl-2-phenyl-7-((tetrahydro-2H-pyran-4-yl)amino)-1H-indol-5-carboxamide] | ≤ 300 |
| COCCNCCOCc1cc(NC2CCOCC2)c2[nH]c(-c3ccccc3)cc2c1 [Example 60, 5-((2-((2-methoxyethyl)amino)ethoxy)methyl)-2-phenyl-N-(tetrahydro-2H-pyran-4-yl)-1H-indol-7-amine] | ≤ 300 |
| CC(C)(O)C#Cc1cc(NC2CCCC2)c2[nH]c(-c3ccccc3)cc2c1 [Example 25, 4-(7-(cyclopentylamino)-2-phenyl-1H-indol-5-yl)-2-methylbut-3-yn-2-ol] | ≤ 300 |
| COCCOCCN(C)C(=O)c1cc(NC2CCOCC2)c2[nH]c(-c3ccccc3)cc2c1 [Example 52, N-(2-(2-methoxyethoxy)ethyl)-N-methyl-2-phenyl-7-((tetrahydro-2H-pyran-4-yl)amino)-1H-indole-5-carboxamide] | > 1000 |
| CCN(CC)C(=O)c1cc(NCc2ccccc2)c2[nH]c(-c3ccccc3)cc2c1 [Example 3, 7-(benzylamino)-N,N-diethyl-2-phenyl-1H-indole-5-carboxamide] | ≤ 300 |
| N#CCc1cc(NC2CCOCC2)c2[nH]c(-c3ccccc3)cc2c1 [Example 23, 2-(2-phenyl-7-((tetrahydro-2H-pyran-4-yl)amino)-1H-indol-5-yl)acetonitrile] | ≤ 300 |
| CN(CCOCCO)C(=O)c1cc(NC2CCOCC2)c2[nH]c(-c3ccccc3)cc2c1 [Example 54, N-(2-(2-hydroxyethoxy)ethyl)-N-methyl-2-phenyl-7-((tetrahydro-2H-pyran-4-yl)amino)-1H-indole-5-carboxamide] | 300 to 1000 |
| OC1CCC(OCCOCc2cc(NC3CCOCC3)c3[nH]c(-c4ccccc4)cc3c2)CC1 (centres unmarked) [Example 38, 4-(2-((2-phenyl-7-((tetrahydro-2H-pyran-4-yl)amino)-1H-indol-5-yl)methoxy)ethoxy)cyclohexan-1-ol] | > 1000 |
| O=C(NC1CC1)c1cc(NC2CCCC2)c2[nH]c(-c3ccccc3)cc2c1 [Example 5, 7-(cyclopentylamino)-N-cyclopropyl-2-phenyl-1H-indole-5-carboxamide] | ≤ 300 |
| CS(=O)(=O)NCCOCc1cc(NC2CCOCC2)c2[nH]c(-c3ccccc3)cc2c1 [Example 59, N-(2-((2-phenyl-7-((tetrahydro-2H-pyran-4-yl)amino)-1H-indol-5-yl)methoxy)ethyl)methanesulfonamide] | ≤ 300 |
| O=C(NC1CC1)c1cc(NC2CCOCC2)c2[nH]c(-c3ccccc3)cc2c1 [Example 6, N-cyclopropyl-2-phenyl-7-((tetrahydro-2H-pyran-4-yl)amino)-1H-indole-5-carboxamide] | ≤ 300 |
| FCCOCc1cc(NC2CCOCC2)c2[nH]c(-c3ccccc3)cc2c1 [Example 39, 5-((2-fluoroethoxy)methyl)-2-phenyl-N-(tetrahydro-2H-pyran-4-yl)-1H-indol-7-amine] | ≤ 300 |

| Compound | EC50 [nM] |
| --- | --- |
| O=C(Cc1cc(NCc2ccccc2)c2[nH]c(-c3ccccc3)cc2c1)NC1CC1 [Example 17, 2-(7-(benzylamino)-2-phenyl-1H-indol-5-yl)-N-cyclopropylacetamide] | ≤ 300 |
| CCN(CC)C(=O)Cc1cc(NCc2ccncc2)c2[nH]c(-c3ccccc3)cc2c1 [Example 13, N,N-diethyl-2-(2-phenyl-7-((pyridin-4-ylmethyl)amino)-1H-indol-5-yl)acetamide] | 300 to 1000 |
| O=C(Nc1ccccc1)c1cc(NCc2ccccc2)c2[nH]c(-c3ccccc3)cc2c1 [Example 10, 7-(benzylamino)-N,2-diphenyl-1H-indole-5-carboxamide] | 300 to 1000 |
| O=S1(=O)CCN(CCOCc2cc(NC3CCCC3)c3[nH]c(-c4ccccc4)cc3c2)CC1 [Example 43, 4-(2-((7-(cyclopentylamino)-2-phenyl-1H-indol-5-yl)methoxy)ethyl)thiomorpholine 1,1-dioxide] | ≤ 300 |
| CS(=O)(=O)CCOCc1cc(NC2CCOCC2)c2[nH]c(-c3ccccc3)cc2c1 [Example 45, 5-((2-(methylsulfonyl)ethoxy)methyl)-2-phenyl-N-(tetrahydro-2H-pyran-4-yl)-1H-indol-7-amine] | ≤ 300 |
| CCN(CC)C(=O)c1cc(NC2CCCC2)c2[nH]c(-c3ccccc3)cc2c1 [Example 1, 7-(cyclopentylamino)-N,N-diethyl-2-phenyl-1H-indol-5-carboxamide] | ≤ 300 |
| CC(C)(O)COCc1cc(NC2CCOCC2)c2[nH]c(-c3ccccc3)cc2c1 [Example 30, 2-methyl-1-((2-phenyl-7-((tetrahydro-2H-pyran-4-yl)amino)-1H-indol-5-yl)methoxy)propan-2-ol] | ≤ 300 |
| CNC(=O)Cc1cc(NC2CCOCC2)c2[nH]c(-c3ccccc3)cc2c1 [Example 15, N-methyl-2-(2-phenyl-7-((tetrahydro-2H-pyran-4-yl)amino)-1H-indol-5-yl)acetamide] | ≤ 300 |
| CCNS(=O)(=O)c1cc(NC2CCOCC2)c2[nH]c(-c3ccccc3)cc2c1 [Example 20, N-ethyl-2-phenyl-7-((tetrahydro-2H-pyran-4-yl)amino)-1H-indole-5-sulfonamide] | ≤ 300 |
| COCCOCCNCc1cc(NC2CCOCC2)c2[nH]c(-c3ccccc3)cc2c1 [Example 57, 5-(((2-(2-methoxyethoxy)ethyl)amino)methyl)-2-phenyl-N-(tetrahydro-2H-pyran-4-yl)-1H-indol-7-amine] | ≤ 300 |
| COCCNC(=O)c1cc(NC2CCOCC2)c2[nH]c(-c3ccccc3)cc2c1 [Example 49, N-(2-methoxyethyl)-2-phenyl-7-((tetrahydro-2H-pyran-4-yl)amino)-1H-indol-5-carboxamide] | ≤ 300 |
| OCCOCc1cc(NC2CCCC2)c2[nH]c(-c3ccccc3)cc2c1 [Example 26, 2-((7-(cyclopentylamino)-2-phenyl-1H-indol-5-yl)methoxy)ethan-1-ol] | ≤ 300 |
| OCCNCCOCc1cc(NC2CCOCC2)c2[nH]c(-c3ccccc3)cc2c1 [Example 48, 2-((2-((2-phenyl-7-((tetrahydro-2H-pyran-4-yl)amino)-1H-indol-5-yl)methoxy)ethyl)amino)ethan-1-ol] | 300 to 1000 |
| CC(C)(O)COCCOCc1cc(NC2CCOCC2)c2[nH]c(-c3ccccc3)cc2c1 [Example 31, 2-methyl-1-(2-((2-phenyl-7-((tetrahydro-2H-pyran-4-yl)amino)-1H-indol-5-yl)methoxy)ethoxy)propan-2-ol] | ≤ 300 |
| c1ccc(-c2cc3cc(COCCN4CCSCC4)cc(NC4CCOCC4)c3[nH]2)cc1 [Example 46, 2-phenyl-N-(tetrahydro-2H-pyran-4-yl)-5-((2-thiomorpholinoethoxy)methyl)-1H-indol-7-amine] | ≤ 300 |
| CCN(CC)C(=O)Cc1cc(NC2CCOCC2)c2[nH]c(-c3ccccc3)cc2c1 [Example 12, N,N-diethyl-2-(2-phenyl-7-((tetrahydro-2H-pyran-4-yl)amino)-1H-indol-5-yl)acetamide] | ≤ 300 |
| CCNS(=O)(=O)c1cc(NCc2ccccc2)c2[nH]c(-c3ccccc3)cc2c1 [Example 21, 7-(benzylamino)-N-ethyl-2-phenyl-1H-indole-5-sulfonamide] | > 1000 |
| O=C(Cc1cc(NCc2ccccc2)c2[nH]c(-c3ccccc3)cc2c1)Nc1ccccc1 [Example 18, 2-(7-(benzylamino)-2-phenyl-1H-indol-5-yl)-N-phenylacetamide] | 300 to 1000 |
| CCN(CC)C(=O)Cc1cc(NC2CCCC2)c2[nH]c(-c3ccccc3)cc2c1 [Example 11, 2-(7-(cyclopentylamino)-2-phenyl-1H-indol-5-yl)-N,N-diethylacetamide] | 300 to 1000 |
